Measurements taken from patent publication US4661483A, “Antihypercholesterolemic lactone compounds, compositions and use” (Merck & Co., Inc., priority 1986, dated 1987).

Test system: HMG-CoA reductase
Test: HMG-CoA Reductase Inhibition Assay (in vitro, [14C]HMG-CoA to mevalonolactone)
Format: biochemical
Conditions: IC50 compared with that of compactin determined simultaneously; compactin assigned 100 (footnote b60 prints 10); tested as sodium salt of dihydroxy acid form; solubilized rat liver microsomal enzyme
Procedure: The intrinsic HMG-CoA reductase inhibition activity of the claimed compounds is measured in the in vitro protocol published in J. Med. Chem., 28, p. 347-358 (1985) and described below:
Isolation of HMG-CoA Reductase
Male Holtzman Sprague-Dawley rats (225-250 g) were kept on reversed lighting and fed Purina rat chow containing 3% cholestyramine for 7 days preceding their sacrifice by CO2 asphyxiation. Livers were removed 6 hours into the dark cycle and used immediately to prepare microsomes. HMG-CoA reductase was solubilized from the freshly prepared microsome by the method of Heller and Shrewsbury [J. Biol. Chem., 1976, 251, 3815] and purified through the second ammonium sulfate precipitation step as described by Kleinsek et al. [Proc. Natl. Acad. Sci. USA, 1977, 74, 1431]. The enzyme preparation was tested for HMG-CoA reductase potency and diluted with 100 mM phosphate buffer (pH 7.2) so that 100 μl of the enzyme solution, when added to the assay control, gave a value of 50,000-60,000 dpm. The enzyme preparation was stored at -80° C.
HMG-CoA Reductase Inhibition Assay
The assay is essentially the procedure of Shefer et al. [J. Lipid Res., 1972, 13, 402]. The complete assay medium contained the following in a total volume of 0.8 ml: phosphate buffer, pH 7.2, 100 mM; MgCl2, 3 mM; NADP, 3 mM; glucose 6-phosphate, 10 mM; glucose-6-phosphate dehydrogenase, 3 enzyme units; reduced glutathione, 50 mM; HMG-CoA (glutaryl-3-^14 C, New England Nuclear), 0.2 mM (0.1 μCi); and partially purified enzyme stock solution, 100 μL.
Test compounds or compactin (after first being converted to the sodium salt of their dihydroxy acid form in situ by addition of 1N NaOH (1 equivalent) were added to the assay system in 10-μL volumes at multiconcentration levels. After a 40-minute incubation at 37° C. with shaking and exposure to air, the reaction was stopped by the addition of 0.4 mL of 8N HCl. After an additional 30-minute incubation period at 37° C. to ensure the complete lactonization of mevalonic acid to mevalonolactone, 0.2 ml of the mixture was added to an 0.5×5.0 cm column containing 100-200 mesh Bio-Rex 5, chloride form (Bio-Rad), wetted with distilled water, as described by Alberts et al. [J. Proc. Natl. Acad. Sci. U.S.A., 1980, 77, 3957]. The unreacted [^14 C]HMG-CoA was absorbed on the resin and the [^14 C]mevalonolactone was eluted with distilled water (2×1 ml) directly into 7-ml scintillation vials. Five milliliters of Aquasol-2 (New England Nuclear) was added to each vial, and radioactivity was measured in a Packard Tri Carb Prias scintillation counter. IC50 values were determined by plotting percentage inhibition against test compound concentration and fitting a straight line to the resulting data by using the least-squares method. For estimation of relative inhibitory potencies, compactin was assigned a value of 100 and the IC50 value of the test compound was compared with that of compactin determined simultaneously.

| Compound | Relative Potency |
| --- | --- |
| CCN(CC)C(=O)C(C)(C)C(=O)OC1CC(C)C=C2C=CC(C)C(CCC(O)CC(O)CC(=O)O)C21 (centres unmarked) | 22 |
| CC1C=C2C=CC(C)C(CCC(O)CC(O)CC(=O)O)C2C(OC(=O)C(C)(C)C(=O)N(C)C)C1 (centres unmarked) | 34 |

Continued, values first:

| Relative Potency | Compound |
| --- | --- |
| 20 | CC1C=C2C=CC(C)C(CCC(O)CC(O)CC(=O)O)C2C(OC(=O)C(C)(C)C(=O)N2CCOCC2)C1 (centres unmarked) |
| 16 | CC1C=C2C=CC(C)C(CCC(O)CC(O)CC(=O)O)C2C(OC(=O)C(C)(C)CC(=O)N(C)C)C1 (centres unmarked) |
| 13 | CNC(=O)C(C)(C)C(=O)OC1CC(C)C=C2C=CC(C)C(CCC(O)CC(O)CC(=O)O)C21 (centres unmarked) |
